Results taken from the NIST ThermoML archive (doi:10.1021/acs.jced.6b00365).

Settings: dynamic light scattering

CCOC(C)(C)C [2-ethoxy-2-methylpropane]
Settings | thermal diffusivity [m2/s]
293.13 K, Liquid | 5.67e-08
303.09 K, Liquid | 5.45e-08
313.21 K, Liquid | 5.16e-08
323.18 K, Liquid | 4.96e-08
333.18 K, Liquid | 4.79e-08
338.25 K, Liquid | 4.7e-08
343.17 K, Liquid | 4.64e-08
348.15 K, Liquid | 4.55e-08
353.08 K, Liquid | 4.49e-08
358.19 K, Liquid | 4.43e-08
363.1 K, Liquid | 4.38e-08
368.12 K, Liquid | 4.33e-08
373.11 K, Liquid | 4.3e-08
378.18 K, Liquid | 4.26e-08
383.14 K, Liquid | 4.2e-08
388.07 K, Liquid | 4.17e-08
393.06 K, Liquid | 4.15e-08
398.17 K, Liquid | 4.1e-08
403.22 K, Liquid | 4.08e-08
408.16 K, Liquid | 4.02e-08
413.1 K, Liquid | 4e-08
418.18 K, Liquid | 3.97e-08
423.09 K, Liquid | 3.95e-08
428.08 K, Liquid | 3.9e-08
433.07 K, Gas | 3.03e-07
433.18 K, Liquid | 3.85e-08
438.17 K, Liquid | 3.82e-08
443.06 K, Liquid | 3.77e-08
443.25 K, Gas | 2.57e-07
448.18 K, Liquid | 3.74e-08
453.13 K, Gas | 2.14e-07
453.18 K, Liquid | 3.68e-08
458.1 K, Liquid | 3.61e-08
463.05 K, Gas | 1.7e-07
463.19 K, Liquid | 3.53e-08
466.12 K, Liquid | 3.5e-08
468.16 K, Gas | 1.5e-07
469.18 K, Liquid | 3.45e-08
472.09 K, Liquid | 3.39e-08
473.25 K, Gas | 1.28e-07
475.06 K, Liquid | 3.33e-08
478.15 K, Liquid | 3.25e-08
478.2 K, Gas | 1.08e-07
481.24 K, Liquid | 3.16e-08
483.18 K, Gas | 8.76e-08
484.23 K, Liquid | 3.05e-08
487.17 K, Liquid | 2.95e-08
488.25 K, Gas | 6.52e-08
490.09 K, Liquid | 2.77e-08
493.14 K, Liquid | 2.63e-08
493.22 K, Gas | 3.68e-08
496.24 K, Liquid | 2.27e-08

Liquid
Settings | thermal diffusivity [m2/s]
372.96 K, 4000 kPa | 4.4e-08
373.15 K, 7000 kPa | 4.47e-08
373.16 K, 10000 kPa | 4.5e-08
383.18 K, 10000 kPa | 4.45e-08
383.35 K, 7000 kPa | 4.41e-08
383.37 K, 4000 kPa | 4.34e-08
392.97 K, 7000 kPa | 4.35e-08
393 K, 4000 kPa | 4.27e-08
393.05 K, 10000 kPa | 4.4e-08
402.94 K, 4000 kPa | 4.2e-08
402.99 K, 7000 kPa | 4.28e-08
403.09 K, 10000 kPa | 4.35e-08
413.25 K, 10000 kPa | 4.3e-08
413.34 K, 7000 kPa | 4.21e-08
413.35 K, 4000 kPa | 4.12e-08
421.78 K, 4000 kPa | 4.07e-08
421.86 K, 7000 kPa | 4.16e-08
422.25 K, 10000 kPa | 4.24e-08
431.42 K, 4000 kPa | 4e-08
431.52 K, 7000 kPa | 4.1e-08
432.83 K, 10000 kPa | 4.18e-08
442.12 K, 4000 kPa | 3.92e-08
442.19 K, 7000 kPa | 4.04e-08
442.53 K, 10000 kPa | 4.13e-08
452.09 K, 4000 kPa | 3.85e-08
452.26 K, 7000 kPa | 3.98e-08
452.4 K, 10000 kPa | 4.08e-08
462.41 K, 4000 kPa | 3.75e-08
462.47 K, 7000 kPa | 3.92e-08
462.95 K, 10000 kPa | 4.03e-08
472.45 K, 4000 kPa | 3.65e-08
472.63 K, 7000 kPa | 3.87e-08
472.63 K, 10000 kPa | 3.99e-08
478.13 K, 10000 kPa | 3.97e-08
478.14 K, 7000 kPa | 3.84e-08
478.2 K, 4000 kPa | 3.6e-08
482.44 K, 4000 kPa | 3.52e-08
483.15 K, 7000 kPa | 3.82e-08
483.2 K, 10000 kPa | 3.95e-08
488.15 K, 7000 kPa | 3.79e-08
488.65 K, 4000 kPa | 3.44e-08
488.83 K, 10000 kPa | 3.93e-08
493.13 K, 4000 kPa | 3.34e-08
493.16 K, 7000 kPa | 3.77e-08
493.3 K, 10000 kPa | 3.92e-08

Cc1ccccc1 [toluene]
Liquid
Settings | thermal diffusivity [m2/s]
302.9 K | 8.63e-08
312.45 K | 8.33e-08
323.07 K | 8.03e-08
333.27 K | 7.77e-08
343.52 K | 7.52e-08
353.73 K | 7.3e-08
363.73 K | 7.09e-08
373.04 K | 6.9e-08
382.94 K | 6.71e-08
392.88 K | 6.52e-08
402.93 K | 6.33e-08
413.06 K | 6.15e-08
422.73 K | 5.98e-08
432.67 K | 5.81e-08
442.68 K | 5.64e-08
452.96 K | 5.48e-08
462.99 K | 5.33e-08
473.2 K | 5.19e-08
482.98 K | 5.06e-08
493.05 K | 4.94e-08
503.17 K | 4.84e-08
513.41 K | 4.74e-08
523.38 K | 4.66e-08

CCC(C)(C)OC [2-methoxy-2-methylbutane]
Settings | thermal diffusivity [m2/s]
291.5 K, Liquid | 6.65e-08
302.19 K, Liquid | 6.36e-08
312.11 K, Liquid | 6.17e-08
323 K, Liquid | 5.95e-08
332.51 K, Liquid | 5.75e-08
342.71 K, Liquid | 5.5e-08
352.32 K, Liquid | 5.33e-08
363.24 K, Liquid | 5.18e-08
373.18 K, Liquid | 5e-08
382.92 K, Liquid | 4.84e-08
388.1 K, Liquid | 4.75e-08
392.6 K, Liquid | 4.68e-08
398.45 K, Liquid | 4.61e-08
402.91 K, Liquid | 4.55e-08
418.23 K, Liquid | 4.36e-08
423 K, Liquid | 4.3e-08
428.55 K, Liquid | 4.24e-08
432.78 K, Liquid | 4.2e-08
438.24 K, Liquid | 4.14e-08
442.67 K, Liquid | 4.1e-08
448.19 K, Liquid | 4.04e-08
453.53 K, Liquid | 3.98e-08
458.62 K, Liquid | 3.95e-08
463.3 K, Liquid | 3.9e-08
468.1 K, Liquid | 3.87e-08
472 K, Liquid | 3.83e-08
477.88 K, Gas | 2.54e-07
478.34 K, Liquid | 3.81e-08
482.92 K, Liquid | 3.78e-08
483.74 K, Gas | 2.3e-07
487.65 K, Gas | 2.13e-07
488.23 K, Liquid | 3.75e-08
492.26 K, Liquid | 3.71e-08
493.04 K, Gas | 1.9e-07
498.77 K, Liquid | 3.63e-08
499.05 K, Gas | 1.63e-07
501.9 K, Liquid | 3.6e-08
502.72 K, Gas | 1.45e-07
504.05 K, Liquid | 3.58e-08
506.94 K, Liquid | 3.52e-08
508.18 K, Gas | 1.21e-07
508.48 K, Liquid | 3.51e-08
511.05 K, Liquid | 3.42e-08
511.38 K, Gas | 1.05e-07
514.02 K, Liquid | 3.36e-08
517.41 K, Gas | 7.83e-08
517.73 K, Liquid | 3.2e-08
519.01 K, Liquid | 3.15e-08
522.19 K, Liquid | 2.98e-08
522.45 K, Gas | 4.2e-08

Liquid
Settings | thermal diffusivity [m2/s]
373.1 K, 7000 kPa | 5.35e-08
373.11 K, 4000 kPa | 5.2e-08
373.12 K, 10000 kPa | 5.47e-08
382.8 K, 4000 kPa | 5.08e-08
382.83 K, 7000 kPa | 5.23e-08
382.94 K, 10000 kPa | 5.36e-08
392.61 K, 4000 kPa | 4.9e-08
392.63 K, 7000 kPa | 5.09e-08
392.73 K, 10000 kPa | 5.23e-08
402.72 K, 4000 kPa | 4.77e-08
402.77 K, 7000 kPa | 4.93e-08
402.81 K, 10000 kPa | 5.07e-08
412.73 K, 4000 kPa | 4.66e-08
412.76 K, 7000 kPa | 4.81e-08
412.86 K, 10000 kPa | 4.94e-08
422.87 K, 10000 kPa | 4.82e-08
423 K, 4000 kPa | 4.52e-08
423.06 K, 7000 kPa | 4.69e-08
432.66 K, 4000 kPa | 4.42e-08
432.76 K, 7000 kPa | 4.59e-08
432.8 K, 10000 kPa | 4.72e-08
442.61 K, 4000 kPa | 4.31e-08
442.7 K, 7000 kPa | 4.47e-08
442.73 K, 10000 kPa | 4.6e-08
453.25 K, 10000 kPa | 4.51e-08
453.47 K, 4000 kPa | 4.2e-08
453.58 K, 7000 kPa | 4.37e-08
463.14 K, 4000 kPa | 4.14e-08
463.21 K, 7000 kPa | 4.31e-08
463.25 K, 10000 kPa | 4.44e-08
472.15 K, 4000 kPa | 4.08e-08
472.25 K, 7000 kPa | 4.26e-08
472.35 K, 10000 kPa | 4.39e-08
478.13 K, 10000 kPa | 4.36e-08
478.14 K, 7000 kPa | 4.22e-08
478.39 K, 4000 kPa | 4.06e-08
483.16 K, 7000 kPa | 4.19e-08
483.16 K, 10000 kPa | 4.32e-08
483.31 K, 4000 kPa | 4.02e-08
488.17 K, 7000 kPa | 4.16e-08
488.18 K, 10000 kPa | 4.29e-08
488.54 K, 4000 kPa | 3.98e-08
492.58 K, 4000 kPa | 3.96e-08
493.13 K, 7000 kPa | 4.13e-08
493.14 K, 10000 kPa | 4.26e-08
498.16 K, 10000 kPa | 4.22e-08
498.25 K, 7000 kPa | 4.08e-08
499 K, 4000 kPa | 3.9e-08
503.15 K, 10000 kPa | 4.18e-08
503.16 K, 4000 kPa | 3.85e-08
503.2 K, 7000 kPa | 4.04e-08
508.09 K, 7000 kPa | 3.99e-08
508.14 K, 10000 kPa | 4.15e-08
508.25 K, 4000 kPa | 3.8e-08
512.28 K, 4000 kPa | 3.72e-08
512.29 K, 7000 kPa | 3.94e-08
512.53 K, 10000 kPa | 4.12e-08
517.79 K, 4000 kPa | 3.63e-08
517.85 K, 7000 kPa | 3.9e-08
518.05 K, 10000 kPa | 4.08e-08
523.25 K, 4000 kPa | 3.53e-08
523.25 K, 7000 kPa | 3.84e-08
523.25 K, 10000 kPa | 4.05e-08
